Tests used:
[1] = system: T. cruzi Tulahuen trypomastigotes; assay: T. cruzi trypomastigote assay (Cell Titer-Glo viability, ATP luminescence); assay type: cell-based, Trypanosoma cruzi; details: pIC50 = -log10 IC50 in molar units; for Trypomastigotes pIC50 48 hours: 48 hours incubation; for Trypomastigotes pIC50 72 hours: 72 hours incubation
How it was run: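 Compounds were tested in dose response or once at a final 5 μM against 5 × 10^4 trypomastigotes per well (DMEM, 2% FBS), collected on days 5–8 from LLC-MK2 infected cultures. ATP luminescence via CellTiter-Glo reports live parasites; DMSO defines 0% and cell-free wells 100% effect.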

[2] = system: T. cruzi intracellular amastigotes in H9c2 cells; assay: Rate-of-Kill (RoK) high-content imaging assay, amastigotes per cell (AM/CELL) and curve descriptors; assay type: cell-based, Trypanosoma cruzi; set-up: key to ME_24h / ME_48h / ME_72h: % reduction in parasite burden (cidal response); t50pct_MCC50 / t50pct_Cmax: unit not given here; details: for ME_24h: 24h; for ME_48h: 48h; for ME_72h: 72h; for tlag_Cmax / t50pct_Cmax: at Cmax; for ME_24h (%): maximum effect at 24 h; for ME_24h (%) / ME_48h (%) / ME_72h (%): RoK assay; for ME_48h (%): maximum effect at 48 h; for ME_72h (%): maximum effect at 72 h; for ME 24h (maximum effect at 24 hours, intracellular amastigotes): maximum percentage of parasite burden reduction reached by any concentration
How it was run: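 Readouts at each time point are amastigotes per cell and host nuclei count (cytotoxicity), from DRAQ5 high-content imaging. Infection: trypomastigotes on H9c2 at MOI 8 for 18 h. Dosing was 5 μM single point or 11 points, 1/3 steps from 50 μM. Effect scaled between 4 h infected and uninfected controls.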

TcCYP51 = details: formerly reported; cited from earlier work

Compound | Trypomastigotes pIC50 48 hours [1] | Trypomastigotes pIC50 72 hours [1] | ME_24h ([2]; figure 5) | ME_48h ([2]; figure 5) | ME_72h ([2]; figure 5) | MCCE ([2]; RoK curve descriptor) [µM] | AM/CELL NORM ([2]; Time 4, sheet figure 4 A) | AM/CELL NORM ([2]; Time 24, sheet figure 4 A) | AM/CELL NORM ([2]; Time 48, sheet figure 4 A) | tlag_Cmax [2] [h] | t50pct_Cmax ([2]; figure 5) | tlag_Cmax ([2]; figure 5) | t50pct_MCC50 ([2]; at MCC50, figure 5) | tlag_MCC50 ([2]; at MCC50, figure 5) | MCCE ([2]; figure 5) | ME_24h (%) [2] [%] | ME_48h (%) [2] [%] | ME_72h (%) [2] [%] | ME 24h (maximum effect at 24 hours, intracellular amastigotes) [2] [%] | CYP51 pIC50 (TcCYP51) | other results
CS(=O)(=O)NC1CCC(Oc2cc3cnccc3cc2-c2ccsc2)CC1.O=C(O)C(F)(F)F (stereo not drawn) [TCMDC-143302] | 4.5 | < 4.3 | 1.036 | 27.0388 | 21.5908 | 0.6 | -2.284 | 1.036 | 27.0388 | 4.0 | 72 | 4 | 72 | 72 | 0.6173 | 1.0 | 27.0 | 21.6 | 1.036 | 7.6 | AM/CELL NORM ([2]; Time 72, sheet figure 4 A): -4.309; MCC50 ([2]; figure 5): 50 µM
CCCn1c(NC(=O)Cc2ccc(Cl)cc2)nc2ccccc21 [TCMDC-143279] | 5.9 | 6 | -55.8269 | -85.7556 | -269.589 | 9.3 | 0.2091 | -159.496 | -347.093 | 38.0 | 72 | 38 | 60 | 48 | 9.259 | -55.8 | -85.8 | -269.6 | 3.26 | < 4 | MCC50 ([2]; RoK curve descriptor): 5.6 µM; AM/CELL NORM ([2]; Time 72, sheet figure 4 A): -621.538; t50%_MCC50 ([2]; at MCC50): 48.0 h; tlag_MCC50 ([2]; at MCC50): 24.0 h; MCC50 ([2]; figure 5, in µM): 27.7778
COc1cc(NC(=O)Nc2cccc(CNC(=O)OC3CCCCC3)c2)ccc1-c1cnco1 [TCMDC-143376] |  | 4.9 | -229.157 | -76.0857 | -0.198 | 0.6 |  |  |  | 24.0 | 72 | 24 | 72 | 72 | 0.6173 | -229.2 | -76.1 | -0.2 | 42.5513 | 4.6 | AM/CELL NORM ([2]; Time 4, figure 4 A): -2.926; AM/CELL NORM ([2]; Time 24, figure 4 A): -229.157; AM/CELL NORM ([2]; Time 48, figure 4 A): -76.0857; AM/CELL NORM ([2]; Time 72, figure 4 A): -16.3246; MCC50 ([2]; figure 5): 50 µM
O=C(O)C(F)(F)F.O=c1ccc2ccc(F)c3c2n1C[C@H]3CN1CCC(NCc2cc3ccccc3o2)CC1 [TCMDC-143301] | 4.5 | 4.4 | 26.9481 | 43.1407 | 49.4796 | 0.2 | 0.9981 | 26.9481 | 43.1407 | 4.0 | 72 | 4 | 72 | 72 | 0.2058 | 27.0 | 43.1 | 49.5 | 26.9481 | 4.5 | AM/CELL NORM ([2]; Time 72, sheet figure 4 A): 49.4796; MCC50 ([2]; figure 5): 50 µM

Source: publication PMC8318231, “Rate-of-Kill (RoK) assays to triage large compound sets for Chagas disease drug discovery: Application to GSK Chagas Box” (PLoS Neglected Tropical Diseases, 2021)
